Test: In vitro kappa-opioid receptor agonist activity in isolated rabbit vas deferens assay

SMILES	IC50 [nM]
O=C(Cc1ccc(Cl)c(Cl)c1)N1CCc2occc2C1CN1CC=CCC1 (stereo not given) [2-(3,4-Dichloro-phenyl)-1-[4-(3,6-dihydro-2H-pyridin-1-ylmethyl)-6,7-dihydro-4H-furo[3,2-c]pyridin-5-yl]-ethanone]	1.4
CN(C)CC1c2ccoc2CCN1C(=O)Cc1ccc(Cl)c(Cl)c1 (stereo not given) [2-(3,4-Dichloro-phenyl)-1-(4-dimethylaminomethyl-6,7-dihydro-4H-furo[3,2-c]pyridin-5-yl)-ethanone]	22
O=C(Cc1ccc(Cl)c(Cl)c1)N1CCc2c(O)cccc2C1CN1CCCC1 (stereo not given)	0.11
O=C(Cc1ccc(Cl)c(Cl)c1)N1CCc2occc2C1CN1CCCC1 (stereo not given) [2-(3,4-Dichloro-phenyl)-1-(4-pyrrolidin-1-ylmethyl-6,7-dihydro-4H-furo[3,2-c]pyridin-5-yl)-ethanone]	15
Cc1cc2c(o1)CCN(C(=O)Cc1ccc(Cl)c(Cl)c1)C2CN1CCC(O)C1 (stereo not given) [2-(3,4-Dichloro-phenyl)-1-[4-(3-hydroxy-pyrrolidin-1-ylmethyl)-2-methyl-6,7-dihydro-4H-furo[3,2-c]pyridin-5-yl]-ethanone]	0.39
O=C(Cc1ccc(Cl)c(Cl)c1)N1CCc2occc2[C@@H]1CN1CC[C@H](O)C1 [2-(3,4-Dichloro-phenyl)-1-[(R)-4-((S)-3-hydroxy-pyrrolidin-1-ylmethyl)-6,7-dihydro-4H-furo[3,2-c]pyridin-5-yl]-ethanone]	1.1
O=C(Cc1ccc(Cl)c(Cl)c1)N1CCc2occc2C1CN1CCC(O)C1 (stereo not given) [2-(3,4-Dichloro-phenyl)-1-[4-(3-hydroxy-pyrrolidin-1-ylmethyl)-6,7-dihydro-4H-furo[3,2-c]pyridin-5-yl]-ethanone]	2.7
O=C(Cc1ccc(Cl)c(Cl)c1)N1CCc2c(O)cccc2C1CN1CCC(O)C1 (stereo not given) [2-(3,4-Dichloro-phenyl)-1-[5-hydroxy-1-(3-hydroxy-pyrrolidin-1-ylmethyl)-3,4-dihydro-1H-isoquinolin-2-yl]-ethanone]	3.8
O=C1CCN(CC2c3ccoc3CCN2C(=O)Cc2ccc(Cl)c(Cl)c2)C1 (stereo not given) [1-{5-[2-(3,4-Dichloro-phenyl)-acetyl]-4,5,6,7-tetrahydro-furo[3,2-c]pyridin-4-ylmethyl}-pyrrolidin-3-one]	6
O=C(Cc1ccc(Cl)c(Cl)c1)N1CCc2occc2[C@H]1CN1CC[C@@H](O)C1 [(RS)-2-(3,4-Dichloro-phenyl)-1-[4-(3-hydroxy-pyrrolidin-1-ylmethyl)-6,7-dihydro-4H-furo[3,2-c]pyridin-5-yl]-ethanone(GR 91272)]	3.4

— BindingDB's records for doi:10.1021/jm00040a004 (Glaxo Group Research, 1994)
